In ChEMBL document CHEMBL5661983, “The selective anaplastic lymphoma receptor tyrosine kinase inhibitor ASP3026 induces tumor regression and prolongs survival in non-small cell lung cancer model mice” (Mol Cancer Ther, 2014):
Activity calls are given as the source filed them. The rule behind the calls is not given here.

Experiments:
[1] = molecular target: BDNF/NT-3 growth factors receptor (Homo sapiens, UniProt Q16620)
[2] = AUC (0 to 24 hrs) in human NCI-H2228 cell xenografted NOD.CB17-Prkdcscid/J mouse tumor at 3 mg/kg/day for 5 days by HPLC-MS analysis; format: ADME, organism-based, Neoplasm; conditions: in vivo, po, 120 h, time 5 day
[3] = molecular target: Epidermal growth factor receptor (Homo sapiens, UniProt P00533, L858R)
Mus musculus [4] = test: Antitumor activity against hEML4-ALK transgenic C57BL/6J mouse assessed as reduction in pulmonary tumor size at 30 to 100 mg/kg, po administered daily for 10 days and measured on day 7 and 11 by computed tomography scan analysis; format: functional, organism-based; conditions: dose 30-100 mg/kg, time 7-11 day
[5] = molecular target: ALK tyrosine kinase receptor (Homo sapiens, UniProt Q9UM73, F1174L)
[6] = In vivo inhibition of ALK autophosphorylation in human NCI-H2228 cell xenografted NOD.CB17-Prkdcscid/J mouse assessed as phosphorylated ALK level at 10 mg/kg, po administered as single dose measured after 4 hrs by immunoblotting method relative to control; format: functional; design: scale not given: the % may be the effect or the level left
[7] = molecular target: Tyrosine-protein kinase JAK2 (Homo sapiens, UniProt O60674)
Mus musculus [8] = test: Antitumor activity against hEML4-ALK transgenic C57BL/6J mouse assessed as reduction in tumor mass at 100 mg/kg, po administered daily for 10 days and measured on day 11 by computed tomography scan analysis; format: functional, organism-based; conditions: time 11.0 day
in vivo = conditions: NOD.CB17-Prkdcscid/J, mouse, tumour, po, 3 mg/kg
[9] = molecular target: Non-receptor tyrosine-protein kinase TNK1 (Homo sapiens, UniProt Q13470)
[10] = molecular target: T1, ALK tyrosine kinase receptor (Homo sapiens, UniProt Q9UM73); test: Inhibition of ALK phosphorylation in human NCI-H2228 cells assessed as phosphorylated ALK level at 1000 nmol/L measured after 4 hrs by Western blot analysis relative to control; format: cell-based; design: scale not given: the % may be the effect or the level left
Target sequence in this assay (Q9UM73 19-1620 limits assumed): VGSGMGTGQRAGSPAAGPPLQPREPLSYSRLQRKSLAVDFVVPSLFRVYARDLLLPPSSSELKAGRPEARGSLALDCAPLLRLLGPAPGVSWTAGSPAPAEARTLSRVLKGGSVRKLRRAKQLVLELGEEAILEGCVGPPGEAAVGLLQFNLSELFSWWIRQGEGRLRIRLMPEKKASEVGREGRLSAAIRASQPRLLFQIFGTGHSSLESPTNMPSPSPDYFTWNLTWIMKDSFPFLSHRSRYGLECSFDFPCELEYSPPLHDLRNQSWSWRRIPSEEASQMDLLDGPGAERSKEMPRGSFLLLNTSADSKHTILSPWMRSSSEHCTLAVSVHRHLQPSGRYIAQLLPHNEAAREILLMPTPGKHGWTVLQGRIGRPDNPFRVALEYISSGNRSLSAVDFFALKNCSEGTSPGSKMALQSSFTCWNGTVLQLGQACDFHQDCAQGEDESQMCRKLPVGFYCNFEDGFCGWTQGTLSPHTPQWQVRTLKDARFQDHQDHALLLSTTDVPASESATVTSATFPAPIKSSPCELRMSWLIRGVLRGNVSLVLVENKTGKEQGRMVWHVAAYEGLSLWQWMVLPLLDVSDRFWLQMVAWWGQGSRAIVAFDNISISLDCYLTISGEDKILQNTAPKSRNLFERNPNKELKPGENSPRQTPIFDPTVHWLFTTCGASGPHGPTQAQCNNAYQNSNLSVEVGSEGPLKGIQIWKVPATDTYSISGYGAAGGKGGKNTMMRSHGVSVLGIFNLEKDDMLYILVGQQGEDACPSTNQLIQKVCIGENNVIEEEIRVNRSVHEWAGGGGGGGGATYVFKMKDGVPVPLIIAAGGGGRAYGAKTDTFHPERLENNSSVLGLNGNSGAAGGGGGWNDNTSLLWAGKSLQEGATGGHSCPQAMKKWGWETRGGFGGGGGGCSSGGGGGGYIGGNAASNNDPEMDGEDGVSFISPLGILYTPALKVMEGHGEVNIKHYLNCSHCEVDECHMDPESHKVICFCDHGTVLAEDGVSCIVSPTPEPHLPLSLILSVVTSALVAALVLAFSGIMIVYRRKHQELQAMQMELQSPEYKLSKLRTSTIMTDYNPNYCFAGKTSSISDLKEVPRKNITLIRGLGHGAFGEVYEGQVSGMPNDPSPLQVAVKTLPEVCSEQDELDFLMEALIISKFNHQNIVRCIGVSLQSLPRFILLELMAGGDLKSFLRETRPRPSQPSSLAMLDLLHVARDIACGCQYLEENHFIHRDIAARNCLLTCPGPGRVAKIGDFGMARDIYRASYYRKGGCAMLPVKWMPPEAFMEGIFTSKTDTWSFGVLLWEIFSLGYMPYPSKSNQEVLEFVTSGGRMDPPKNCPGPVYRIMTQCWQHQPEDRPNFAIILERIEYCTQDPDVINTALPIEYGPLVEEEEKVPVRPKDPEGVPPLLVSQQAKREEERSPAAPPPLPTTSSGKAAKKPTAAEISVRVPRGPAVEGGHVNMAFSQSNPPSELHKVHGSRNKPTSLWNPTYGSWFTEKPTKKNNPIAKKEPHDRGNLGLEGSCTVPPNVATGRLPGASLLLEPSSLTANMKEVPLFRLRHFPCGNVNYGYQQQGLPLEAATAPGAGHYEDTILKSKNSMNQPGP

Activated CDC42 kinase 1 = Activated CDC42 kinase 1 (Homo sapiens, UniProt Q07912)
[11] = molecular target: Hepatocyte growth factor receptor (Homo sapiens, UniProt P08581); test: Inhibition of human N-terminal GST-fused MET cytoplasmic domain ([956 to 1390(end) residues) expressed in baculovirus expression system using Srctide as substrate measured after 1 hr by off-chip mobility shift assay relative to control
[12] = molecular target: T1, ALK tyrosine kinase receptor; test: Inhibition of ALK in human NCI-H2228 cells assessed as reduction in ERK phosphorylation by measuring phosphorylated ERK level at 100 nmol/L measured after 4 hrs by Western blot analysis relative to control; format: cell-based; design: scale not given: the % may be the effect or the level left
Target sequence in this assay (Q9UM73 19-1620 limits assumed): as above

[13] = molecular target: T1, ALK tyrosine kinase receptor; test: Inhibition of ALK phosphorylation in human NCI-H2228 cells assessed as phosphorylated ALK level at 10 nmol/L measured after 4 hrs by Western blot analysis relative to control; format: cell-based; design: scale not given: the % may be the effect or the level left
Target sequence in this assay (Q9UM73 19-1620 limits assumed): as above

Ephrin type-B receptor 4 = Ephrin type-B receptor 4 (Homo sapiens, UniProt P54760)
NCI-H2228 [14] = test: Potentiation of pemetrexed-induced antitumor activity against human NCI-H2228 cells xenografted in NOD.CB17-Prkdcscid/J mouse assessed as reduction in tumor volume at 10 mg/kg, po administered once daily for 5 days; format: functional, organism-based; conditions: time 5.0 day
[15] = molecular target: NPM/ALK (Nucleophosmin/ALK tyrosine kinase receptor) (Homo sapiens, UniProt Q9UM73)
[16] = Tmax in human NCI-H2228 cell xenografted NOD.CB17-Prkdcscid/J mouse tumor at 10 mg/kg/day for 5 days by HPLC-MS analysis; format: ADME, organism-based, Neoplasm; conditions: route po, time 5 day
[17] = molecular target: T1, ALK tyrosine kinase receptor; test: Inhibition of ALK in human NCI-H2228 cells assessed as reduction in STAT3 phosphorylation by measuring phosphorylated STAT3 level at 1000 nmol/L measured after 4 hrs by Western blot analysis relative to control; format: cell-based; design: scale not given: the % may be the effect or the level left
Target sequence in this assay (Q9UM73 19-1620 limits assumed): as above

[18] = Cmax in human NCI-H2228 cell xenografted NOD.CB17-Prkdcscid/J mouse plasma at 10 mg/kg/day for 5 days by HPLC-MS analysis; format: ADME, organism-based; conditions: route po, time 5 day
[19] = Cmax in human NCI-H2228 cell xenografted NOD.CB17-Prkdcscid/J mouse tumor at 1 mg/kg/day for 5 days by HPLC-MS analysis; format: ADME, organism-based, Neoplasm; conditions: route po, time 5 day
[20] = molecular target: T1, ALK tyrosine kinase receptor
[21] = molecular target: T1, ALK tyrosine kinase receptor; test: Inhibition of ALK in human NCI-H2228 cells assessed as reduction in AKT phosphorylation by measuring phosphorylated AKT level at 100 nmol/L measured after 4 hrs by Western blot analysis relative to control; format: cell-based; design: scale not given: the % may be the effect or the level left
Target sequence in this assay (Q9UM73 19-1620 limits assumed): as above

[22] = Cmax in human NCI-H2228 cell xenografted NOD.CB17-Prkdcscid/J mouse plasma at 3 mg/kg/day for 5 days by HPLC-MS analysis; format: ADME, organism-based; conditions: route po, time 5 day
[23] = Tmax in human NCI-H2228 cell xenografted NOD.CB17-Prkdcscid/J mouse tumor at 3 mg/kg/day for 5 days by HPLC-MS analysis; format: ADME, organism-based, Neoplasm; conditions: route po, time 5 day
NCI-H2228-Luc [24] = test: Antitumor activity against human NCI-H2228-Luc cells intrahepatically xenografted in NOD.CB17-Prkdcscid/J mouse assessed as reduction in tumor burden by measuring bioluminescence emission at 30 mg/kg, po administered once daily for 3 weeks starting from 14 days post-cell inoculation and measured on day 19 by bioluminescent imaging analysis (reference value: 3.3 x 10^8 photon/sec); format: functional; conditions: time 19 day
Ephrin type-A receptor 6 = Ephrin type-A receptor 6 (Homo sapiens, UniProt Q9UF33)
[25] = Tmax in human NCI-H2228 cell xenografted NOD.CB17-Prkdcscid/J mouse plasma at 10 mg/kg/day for 5 days by HPLC-MS analysis; format: ADME, organism-based; conditions: route po, time 5 day
NCI-H2228-Luc [26] = test: Antitumor activity against human NCI-H2228-Luc cells intrahepatically xenografted in NOD.CB17-Prkdcscid/J mouse assessed as reduction in tumor burden by measuring bioluminescence emission at 30 mg/kg, po administered once daily for 3 weeks starting from 14 days post-cell inoculation and measured on day 14 by bioluminescent imaging analysis (reference value: 3.3 x 10^8 photon/sec); format: functional; conditions: time 14 day
[27] = molecular target: T1, ALK tyrosine kinase receptor; test: Inhibition of ALK in human NCI-H2228 cells assessed as reduction in AKT phosphorylation by measuring phosphorylated AKT level at 1000 nmol/L measured after 4 hrs by Western blot analysis relative to control; format: cell-based; design: scale not given: the % may be the effect or the level left
Target sequence in this assay (Q9UM73 19-1620 limits assumed): as above

NCI-H2228 [28] = test: Antiproliferative activity against human NCI-H2228 cell spheroids assessed as reduction in cell growth measured after 5 days by celltiter-glo luminescent cell viability assay; format: functional, cell-based; conditions: NCI-H2228, 120 h
[29] = molecular target: ALK tyrosine kinase receptor (Homo sapiens, UniProt Q9UM73, R1275Q)
ALK tyrosine kinase receptor (Homo sapiens, UniProt Q9UM73, R1275Q), sequence (Q9UM73 19-1620 R1275Q limits assumed): as the sequence (Q9UM73 19-1620 limits assumed) above, with R1257Q counted along it

Non-receptor tyrosine-protein kinase TNK1, sequence (Q13470 whole entry): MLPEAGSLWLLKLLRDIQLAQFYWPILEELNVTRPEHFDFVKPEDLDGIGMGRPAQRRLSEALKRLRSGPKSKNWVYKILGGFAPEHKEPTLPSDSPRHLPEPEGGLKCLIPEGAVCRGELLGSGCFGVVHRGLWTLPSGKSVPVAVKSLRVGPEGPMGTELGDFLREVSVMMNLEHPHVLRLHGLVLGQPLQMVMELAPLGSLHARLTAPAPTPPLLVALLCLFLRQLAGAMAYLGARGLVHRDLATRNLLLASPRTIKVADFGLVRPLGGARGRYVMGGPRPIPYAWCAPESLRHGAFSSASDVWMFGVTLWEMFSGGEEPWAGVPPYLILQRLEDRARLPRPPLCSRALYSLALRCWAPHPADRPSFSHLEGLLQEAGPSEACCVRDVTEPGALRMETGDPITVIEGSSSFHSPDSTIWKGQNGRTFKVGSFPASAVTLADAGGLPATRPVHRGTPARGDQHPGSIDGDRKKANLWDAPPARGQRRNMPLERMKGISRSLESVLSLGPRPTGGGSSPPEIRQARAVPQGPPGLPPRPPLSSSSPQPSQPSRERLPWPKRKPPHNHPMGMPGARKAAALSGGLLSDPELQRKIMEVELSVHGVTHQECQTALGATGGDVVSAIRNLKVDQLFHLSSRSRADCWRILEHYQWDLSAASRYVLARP
Epidermal growth factor receptor, sequence (P00533 25-1210 L858R limits assumed): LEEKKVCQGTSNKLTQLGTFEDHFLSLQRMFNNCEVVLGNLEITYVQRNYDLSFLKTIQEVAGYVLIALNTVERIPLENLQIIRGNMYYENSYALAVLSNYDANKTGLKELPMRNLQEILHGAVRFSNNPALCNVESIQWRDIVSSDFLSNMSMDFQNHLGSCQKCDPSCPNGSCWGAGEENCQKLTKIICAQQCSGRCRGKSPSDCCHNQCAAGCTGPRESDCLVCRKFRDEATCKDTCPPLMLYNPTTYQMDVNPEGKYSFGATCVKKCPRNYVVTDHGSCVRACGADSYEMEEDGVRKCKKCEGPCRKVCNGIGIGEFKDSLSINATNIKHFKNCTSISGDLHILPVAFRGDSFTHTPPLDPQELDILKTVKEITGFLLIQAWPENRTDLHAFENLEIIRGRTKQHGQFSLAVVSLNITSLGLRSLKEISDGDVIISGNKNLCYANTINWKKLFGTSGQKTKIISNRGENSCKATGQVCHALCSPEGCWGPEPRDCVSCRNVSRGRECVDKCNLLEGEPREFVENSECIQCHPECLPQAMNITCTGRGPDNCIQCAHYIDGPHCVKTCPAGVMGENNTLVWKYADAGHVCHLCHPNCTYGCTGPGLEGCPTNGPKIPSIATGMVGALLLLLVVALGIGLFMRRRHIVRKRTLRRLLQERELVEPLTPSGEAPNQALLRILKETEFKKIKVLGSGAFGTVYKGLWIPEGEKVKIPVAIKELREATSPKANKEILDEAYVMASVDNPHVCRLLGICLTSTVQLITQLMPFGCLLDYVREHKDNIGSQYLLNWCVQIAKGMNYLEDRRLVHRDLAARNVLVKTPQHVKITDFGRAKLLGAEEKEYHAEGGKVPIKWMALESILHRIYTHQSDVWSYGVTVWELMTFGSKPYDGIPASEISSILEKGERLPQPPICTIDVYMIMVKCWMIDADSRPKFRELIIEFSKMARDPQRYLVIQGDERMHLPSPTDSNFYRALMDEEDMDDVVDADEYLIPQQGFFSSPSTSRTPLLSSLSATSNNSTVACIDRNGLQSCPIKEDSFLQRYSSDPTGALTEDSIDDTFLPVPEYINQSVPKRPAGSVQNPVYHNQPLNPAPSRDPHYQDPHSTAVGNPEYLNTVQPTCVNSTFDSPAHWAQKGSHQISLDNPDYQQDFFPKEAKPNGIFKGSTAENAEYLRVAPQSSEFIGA
Tyrosine-protein kinase JAK2, sequence (O60674 whole entry): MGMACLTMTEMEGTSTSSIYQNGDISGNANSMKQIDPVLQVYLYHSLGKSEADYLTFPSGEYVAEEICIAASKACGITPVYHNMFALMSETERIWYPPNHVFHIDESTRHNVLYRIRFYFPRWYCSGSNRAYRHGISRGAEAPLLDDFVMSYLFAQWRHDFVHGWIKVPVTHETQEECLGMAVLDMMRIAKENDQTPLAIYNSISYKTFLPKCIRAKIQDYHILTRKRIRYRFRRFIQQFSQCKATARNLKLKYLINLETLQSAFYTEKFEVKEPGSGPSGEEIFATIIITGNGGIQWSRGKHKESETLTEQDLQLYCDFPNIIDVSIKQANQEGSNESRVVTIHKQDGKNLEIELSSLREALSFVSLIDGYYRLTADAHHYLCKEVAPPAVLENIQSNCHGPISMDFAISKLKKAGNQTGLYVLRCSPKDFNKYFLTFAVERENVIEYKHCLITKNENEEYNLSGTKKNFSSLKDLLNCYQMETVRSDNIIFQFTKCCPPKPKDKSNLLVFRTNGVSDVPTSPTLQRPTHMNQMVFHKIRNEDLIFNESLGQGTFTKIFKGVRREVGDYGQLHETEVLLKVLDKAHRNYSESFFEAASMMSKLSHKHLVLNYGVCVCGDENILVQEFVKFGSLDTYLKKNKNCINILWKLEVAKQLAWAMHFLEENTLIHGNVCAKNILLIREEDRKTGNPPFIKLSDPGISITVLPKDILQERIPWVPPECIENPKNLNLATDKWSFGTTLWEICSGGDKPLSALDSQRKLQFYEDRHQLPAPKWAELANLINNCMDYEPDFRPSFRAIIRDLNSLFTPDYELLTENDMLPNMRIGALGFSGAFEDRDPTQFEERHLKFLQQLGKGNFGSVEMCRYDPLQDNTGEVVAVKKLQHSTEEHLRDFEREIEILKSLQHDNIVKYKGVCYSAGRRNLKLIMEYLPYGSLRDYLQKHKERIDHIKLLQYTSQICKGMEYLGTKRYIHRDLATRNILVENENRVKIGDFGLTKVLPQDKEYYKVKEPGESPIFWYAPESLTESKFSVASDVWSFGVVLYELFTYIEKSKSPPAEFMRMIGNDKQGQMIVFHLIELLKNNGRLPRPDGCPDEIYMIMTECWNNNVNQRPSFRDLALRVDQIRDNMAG
ALK tyrosine kinase receptor (Homo sapiens, UniProt Q9UM73, F1174L), sequence (Q9UM73 19-1620 F1174L limits assumed): as the sequence (Q9UM73 19-1620 limits assumed) above, with F1156L counted along it

## COc1cc(N2CCC(N3CCN(C)CC3)CC2)ccc1Nc1ncnc(Nc2ccccc2S(=O)(=O)C(C)C)n1 [ASP-3026]
[1]
  IC50: > 1 µM
[2]
  AUC: 34400 ng·h/g
[3]
  IC50: 0.086 µM
Mus musculus [4]
  Activity: Active
[5]
  IC50: 0.01 µM
[6]
  Activity: ~20%
[7]
  IC50: > 1 µM
Mus musculus [8]
  Activity: Active
In vivo
  Kp at 120 h: 19
[9]
  IC50: 0.0268 µM
[10]
  Activity: 9%
Activated CDC42 kinase 1
  IC50: 0.0058 µM
[11]
  IC50: > 1 µM
[12]
  Activity: 54%
[13]
  Activity: 70%
Ephrin type-B receptor 4
  IC50: > 1 µM
NCI-H2228 [14]
  Activity: Active
[15]
  IC50: 0.0068 µM
[16]
  Tmax: 4 h
[17]
  Activity: 46%
[18]
  Cmax: 508 ng/mL
[19]
  Cmax: 850 ng/g
[20]
  IC50: 0.0035 µM
[21]
  Activity: 56%
[22]
  Cmax: 140 ng/mL
[23]
  Tmax: 4 h
NCI-H2228-Luc [24]
  Activity: 7.7 10^6No_unit
Ephrin type-A receptor 6
  IC50: > 1 µM
[25]
  Tmax: 4 h
NCI-H2228-Luc [26]
  Activity: 4.2 10^6No_unit
[27]
  Activity: 20%
NCI-H2228 [28]
  IC50: 0.0648 µM
[29]
  IC50: 0.0054 µM
